This is an account of results in patent US20220373536A1, “HIGH-CONTENT ANALYSIS METHOD” (priority 2019, published 2022).

For this test, the system named is plasma cells (target cells, CD138+; U-266 or NCI-H929). Description: ICNP-based ADCC assay in microwells, NK cells against plasma cells / U-266 cells under anti-CD38 stimulation, time-lapse PI readout. It is filed as cell-based.

Source text: EDTA bone marrow samples were collected from 13 patients with multiple myeloma (MM, 7 de novo and 6 relapses). 8 primary samples were processed through density centrifugation (Ficoll-Pacque; Merck) in order to obtain mononuclear cells while preserving the original composition of the effector (E) and target (T) cells, i.e., NK and plasma cells, respectively. 5 samples were processed with CD138 Antibody coupled to magnetic beads (Miltenyi Biotec) to obtain a population of white blood cells (WBC), a population which comprises NK cells and is depleted of plasma cells.
The resulting cells were co-cultured with U-266 or NCI-H929 cell lines as target cells. […]
The cells from primary or co-culture samples were seeded in 96-well plates, with a final concentration of 2×10^5 cells/well, with variable E:T ratios. […] Each experiment was analyzed by time lapse in fluorescence microscopy for up to 12 hours.
The images for said plurality of microwells are then acquired and, with a detection algorithm, the areas of interest, where each area of interest corresponds to a single cell, for each of said areas of interest, properties which comprise localization, the intensity of certain markers in each fluorescence channel, the cell area, the position of the center of gravity and the morphology are then measured. […]

As to Daratumumab, the “plasma cell death with respect to plasma cell - NK cell distance” value (10 μg/mL, 1,200 microwells, plasma cells in contact with NK cells, decreases as distance increases, FIG. 11E) is listed as “maximum”. Moreover, the “death rate of the plasma cells belonging to pattern 2 (spontaneous death or direct effect of the antibody)” value (10 μg/mL, pattern 2 microwells (only plasma cells, no NK)) is listed as 10.86%.
